Results: article PMC10046692 (Cancers, 2023)

Experiments:
[1] = Toxicity observation in xenograft study; format: in vivo; settings: xenograft nude mice, 20 mg/kg orally
Description: (§1) All animals were maintained in germ-free environments, and the study was carried out per IACUC guidelines that the University of Louisville authorized. Athymic nude Balb/c mice (nu/nu) were obtained from The Jackson Laboratory at 6 weeks of age. C4-2B and 22Rv1 cells (1–1.5 × 10^6, approximately) were injected into separate flanks of the mice (n = 6) for subcutaneous tumor xenograft studies using a final volume of 100 μL of phosphate-buffered saline and Matrigel (1:1). Once the tumors reached ~50–100 mm^3, the mice were randomly divided into two groups; one group received a vehicle and the other groups received SB1-46 (20 mg/kg) orally for […] for 4 weeks. Mice were monitored twice weekly, and tumor volumes were measured once a week.
It has been reported that the inhibition of AR-mediated survival signaling by small molecules results in either cell cycle arrest or the induction of apoptosis in CRPC cells. Our studies also observed the induction of pro-apoptotic machinery and concomitant downregulation of pro-survival signaling in SBI-46-treated CRPC cells.

C4-2B cells [2] = assay: Soft agar colony formation assay; format: cell-based, human; settings: p = 0.001
From the text: (§2) The CytoSelectTM 96-well In Vitro Tumor Sensitivity Assay Kit was used to perform the colony formation assay to detect anchorage-independent growth (Cell Biolabs, Inc., San Diego, CA, USA). LNCaP, C4-2B, and 22Rv1 cells (5 × 10^3 cells) that had been exposed to either the vehicle or SBI-46 were harvested and used for the assay following the manufacturer’s instructions. Colonies were manually counted after being stained with 0.005% crystal violet after ten days.

RWPE-1 cells = format: cell-based
Description: (§3) The effect of the treatments on prostate cancer and normal prostate epithelial cells’ (LNCaP, 22Rv1, C4-2B, PC3, and RWPE1) viability was evaluated using the Alamar blue assay. Cells were seeded into 96-well plates, and after growing to 60–75% confluency, they were treated with vehicle control (DMSO, Sigma Aldrich, St. Louis, MO, USA) or various concentrations of SBI-46 in respective media for 24 h. At the termination of exposure, cells were incubated with 100 μL of 3% Alamar Blue solution in a complete growth medium at 37 °C for 2 h. Absorbance was measured, and data were analyzed following the manufacturer’s instructions (Life Technologies Corporation, Eugene, OR, USA).

[3] = system: acetylated H4 and tubulin in LNCaP cells; assay: Western blot of H4 and tubulin acetylation (intracellular HDAC inhibition); format: cell-based, Human; settings: 0.5 and 5 µM, 6 h
Description: To probe H4 and tubulin acetylation status, LNCaP cells were seeded into a 6-well plate at 1 × 10^6/well in RPMI for 24–48 h until the confluency reached 80%. […] Cells were treated for 6 h and scraped out of the well. The cells were washed with cold PBS three times and lysed with RIPA buffer (110 μL) (VWR, VWRVN653—100 mL) containing phosphatase inhibitor (Fisher Thermo, A32957, Waltham, MA, USA) and protease inhibitor (Fisher Thermo, A32955). The cell lysates were vortexed for 15 s, followed by sonication for 90 s. The lysates were then centrifuged at 14,000 rpm for 10 min, and the supernatants were collected. The total protein concentration was determined using a BCA protein assay kit (BioVision, K813-2500, Milpitas, CA, USA). Based on the results from the BCA assay, the lysates were diluted to make an equal protein concentration, and 20 μg of each lysate was loaded to each well of the TGX MIDI 4–20% gel (Biorad, cat. 5671093, Hercules, CA, USA) and ran at 150 V for 70 min. […]

C4-2B cells [4] = assay: Annexin V-FITC / PI apoptosis assay; format: cell-based, human; settings: p = 0.01
From the text: As previously described, apoptosis was detected using the annexin V-fluorescein isothiocyanate (FITC) versus propidium iodide (PI) assay (FITC Annexin V Apoptosis Detection Kit I, BD Pharminogen).

[5] = system: AR-FL, AR-V7 and PSA expression in CRPC cells; assay: Western blot of AR-FL, AR-V7 and PSA expression; format: cell-based, Human
HDAC6 = target: T1, HDAC6 (Homo sapiens, UniProt Q9UBN7); assay: HDAC inhibition, fluorescence-based assay (BPS Bioscience); format: biochemical; settings: HDAC6 versus HDAC1
T1 construct: purchased BPS Bioscience (contract research organization that ran the assay)
T1 sequence (Q9UBN7 1-1215): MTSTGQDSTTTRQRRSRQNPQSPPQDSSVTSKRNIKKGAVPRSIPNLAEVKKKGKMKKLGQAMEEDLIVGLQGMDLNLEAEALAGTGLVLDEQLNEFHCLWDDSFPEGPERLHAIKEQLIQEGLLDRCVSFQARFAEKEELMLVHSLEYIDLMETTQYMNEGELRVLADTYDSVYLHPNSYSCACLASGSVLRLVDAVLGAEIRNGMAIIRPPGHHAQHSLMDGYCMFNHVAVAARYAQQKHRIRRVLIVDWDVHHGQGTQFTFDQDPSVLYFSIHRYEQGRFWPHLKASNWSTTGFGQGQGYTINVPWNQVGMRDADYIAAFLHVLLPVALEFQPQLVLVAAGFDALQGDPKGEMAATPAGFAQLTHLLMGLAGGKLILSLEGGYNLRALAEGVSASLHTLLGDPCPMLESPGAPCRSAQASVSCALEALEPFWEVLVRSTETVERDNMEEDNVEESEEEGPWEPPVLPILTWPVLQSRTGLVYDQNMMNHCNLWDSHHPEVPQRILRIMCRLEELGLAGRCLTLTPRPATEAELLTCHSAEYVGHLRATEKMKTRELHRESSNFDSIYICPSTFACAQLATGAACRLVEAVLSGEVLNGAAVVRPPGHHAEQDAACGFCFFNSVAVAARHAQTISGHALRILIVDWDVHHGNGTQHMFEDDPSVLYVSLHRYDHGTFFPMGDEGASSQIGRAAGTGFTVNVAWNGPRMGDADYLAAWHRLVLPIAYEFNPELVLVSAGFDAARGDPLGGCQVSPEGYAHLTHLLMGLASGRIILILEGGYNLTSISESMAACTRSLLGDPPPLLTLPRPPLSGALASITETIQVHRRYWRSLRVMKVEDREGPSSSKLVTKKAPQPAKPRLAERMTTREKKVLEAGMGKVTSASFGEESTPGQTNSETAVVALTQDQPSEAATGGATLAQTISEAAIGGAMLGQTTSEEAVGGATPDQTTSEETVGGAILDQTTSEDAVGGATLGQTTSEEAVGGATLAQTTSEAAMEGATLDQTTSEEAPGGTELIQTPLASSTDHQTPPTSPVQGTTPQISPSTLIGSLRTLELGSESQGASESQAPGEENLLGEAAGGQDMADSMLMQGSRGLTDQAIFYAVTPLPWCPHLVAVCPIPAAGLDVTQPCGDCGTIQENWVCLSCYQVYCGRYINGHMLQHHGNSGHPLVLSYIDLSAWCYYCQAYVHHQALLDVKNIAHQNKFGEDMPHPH
Description: In vitro HDAC inhibition was performed by the contract research organization (CRO) BPS Bioscience while an AR-binding assay was performed by Eurofins Panlabs. (St. Charles, MO, USA). These assays were performed through contract agreements with these CROs.

HEK-293 cells = assay: cells; format: cell-based
Description: (§4) Human PCa cells (LNCaP and 22Rv1) and normal prostate epithelial (RWPE-1) and kidney (HEK-293 and VERO) cells were obtained from American […] (ATCC, Manassas, VA, USA). C4-2B was obtained from the ViroMed Laboratories (Minneapolis, MN). The cells were grown on a specified medium previously described. Dihydrotestosterone (DHT) (1 nM) (Cerilliant, TX, USA) studies were performed in phenol red-free RPMI1640 supplemented with 10% charcoal-stripped FBS (Gemini, West Sacramento, CA, USA).

VERO cells = assay: cells; format: cell-based
Description: as §4

22Rv1 cells [6] = assay: Soft agar colony formation assay; format: cell-based, Human; settings: p = 0.001
From the text: as §2

LNCaP cells [7] = assay: Soft agar colony formation assay; format: cell-based, Human; settings: p = 0.001
From the text: as §2

22Rv1 cells [8] = assay: Cell viability, Alamar blue assay; format: cell-based; settings: Homo sapiens, treated for 24 h, read-out: growth inhibition IC50, 22Rv1
Description: as §3

PC-3 cells = assay: Cell viability, Alamar blue assay; format: cell-based; settings: treated for 24 h
Description: as §3

LNCaP cells [9] = assay: Cell viability, Alamar blue assay; format: cell-based; settings: Homo sapiens, treated for 24 h, read-out: growth inhibition IC50, LNCaP
Description: as §3

C4-2B cells [10] = assay: Cell viability, Alamar blue assay; format: cell-based; settings: Homo sapiens; treated for 24 h; read-out: growth inhibition IC50, C4-2B
Description: as §3

C4-2B xenograft tumors = assay: Subcutaneous xenograft study in nude mice; format: in vivo; settings: 20 mg/kg b.w. orally, five days/week for four weeks
Description: as §1
(§5) Finally, in a nude mice model, we evaluated the efficacy of orally administered SBI-46 in xenograft tumors from 22Rv1 and C4-2B cells. Athymic BALB/c nude mice were subcutaneously injected with 22Rv1 and C4-2B (1 × 10^6 cells), and when the tumors reached 50–100 mm^3, either the vehicle or SBI-46 (20 mg/kg b.w.) were given orally for five days/week for four weeks.

22Rv1 xenograft tumors = assay: Subcutaneous xenograft study in nude mice; format: in vivo; settings: 20 mg/kg b.w. orally, five days/week for four weeks
Description: as §1, §5

## CC1(C)C(=O)N(c2ccc(C#N)c(C(F)(F)F)c2)C(=O)N1Cc1ccc(-c2cn(CCCCCCCC(=O)NO)nn2)cc1F [SBI-46]
[1]
  toxicity in vivo, gross pathological examination of vital organs: not toxic
C4-2B cells [2]
  colony-forming ability, C4-2B: reduced the colony-forming ability
RWPE-1 cells
  toxicity in normal prostate epithelial cell line RWPE-1: no significant toxicity
[3]
  acetylation status of H4 and α-tubulin: dose-dependent upregulation of acetylated H4 and tubulin
C4-2B cells [4]
  induction of apoptosis (annexin V-FITC staining): 18%
[5]
  expressions of AR-FL and AR-V7: downregulated
HDAC6
  selectivity for HDAC6: ~ 4 fold
HEK-293 cells
  toxicity in kidney cell line HEK-293: no significant toxicity
HEK-293 cells; Homo sapiens, HEK293, Figure 1B
  IC50: 16.4 ± 2.22 µM
VERO cells
  toxicity in kidney cell line VERO: no significant toxicity
VERO cells; Chlorocebus sabaeus, Vero, Figure 1B
  IC50: 40 ± 4.57 µM
22Rv1 cells [6]
  colony-forming ability, 22Rv1: reduced the colony-forming ability
LNCaP cells [7]
  colony-forming ability, LNCaP: reduced the colony-forming ability
22Rv1 cells [8]
  IC50: 560 nM
PC-3 cells
  effect on viability of AR-null PC-3 cells: not effective
LNCaP cells [9]
  IC50: 500 nM
C4-2B cells [10]
  IC50: 480 nM
C4-2B xenograft tumors
  tumor volume and weight, C4-2B xenograft: significant decrease
22Rv1 xenograft tumors
  tumor volume and weight, 22Rv1 xenograft: significant decrease
